# Reference: paper PMC7156458, “Synthetic biology based construction of biological activity-related library of fungal decalin-containing diterpenoid pyrones” (Nature Communications, 2020)
# Target: Aβ42 (Homo sapiens, UniProt P05067)
# Experiment: Th-T (thioflavin-T) assay of Aβ42 aggregation
# Format: biochemical
# Settings: for Th-T assay plate reading, mean of three wells (Supplementary Fig. 47): source data, Ab alone and No Ab as controls
# Chain of Aβ42 (P05067 672-713): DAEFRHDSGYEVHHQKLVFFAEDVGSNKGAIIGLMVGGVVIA
compound,measurement,setting,value
C=C1CC[C@H]2[C@]3(C)C[C@@H](C=C(C)C)O[C@H]3CC[C@]2(C)[C@@H]1Cc1c(OC)oc(CO)c(C)c1=O [Compound 17],"Th-T fluorescence, mean of three wells","Aβ42 aggregation time course, reading M117",3.6742
same,"Th-T fluorescence, mean of three wells","Aβ42 aggregation time course, reading M118",3.663
same,"Th-T fluorescence, mean of three wells","Aβ42 aggregation time course, reading M119",3.652
same,"Th-T fluorescence, mean of three wells","Aβ42 aggregation time course, reading M120",3.6432
same,"Th-T fluorescence, mean of three wells","Aβ42 aggregation time course, reading M121",3.639
same,"Th-T fluorescence, mean of three wells","Aβ42 aggregation time course, reading M122",3.631
same,"Th-T fluorescence, mean of three wells","Aβ42 aggregation time course, reading M123",3.625
same,"Th-T fluorescence, mean of three wells","Aβ42 aggregation time course, reading M124",3.645
same,"Th-T fluorescence, mean of three wells","Aβ42 aggregation time course, reading M125",3.636
same,"Th-T fluorescence, mean of three wells","Aβ42 aggregation time course, reading M126",3.626
same,"Th-T fluorescence, mean of three wells","Aβ42 aggregation time course, reading M127",3.63
same,"Th-T fluorescence, mean of three wells","Aβ42 aggregation time course, reading M128",3.617
same,"Th-T fluorescence, mean of three wells","Aβ42 aggregation time course, reading M129",3.6361
same,"Th-T fluorescence, mean of three wells","Aβ42 aggregation time course, reading M130",3.633
same,"Th-T fluorescence, mean of three wells","Aβ42 aggregation time course, reading M131",3.621
same,"Th-T fluorescence, mean of three wells","Aβ42 aggregation time course, reading M132",3.621
same,"Th-T fluorescence, mean of three wells","Aβ42 aggregation time course, reading M133",3.612
same,"Th-T fluorescence, mean of three wells","Aβ42 aggregation time course, reading M134",3.622
same,"Th-T fluorescence, mean of three wells","Aβ42 aggregation time course, reading M135",3.594
same,"Th-T fluorescence, mean of three wells","Aβ42 aggregation time course, reading M136",3.604
same,"Th-T fluorescence, mean of three wells","Supplementary Fig. 47, reading M137",3.585
same,"Th-T fluorescence, mean of three wells","Supplementary Fig. 47, reading M138",3.583
same,"Th-T fluorescence, mean of three wells","Supplementary Fig. 47, reading M139",3.585
same,"Th-T fluorescence, mean of three wells","Supplementary Fig. 47, reading M140",3.575
same,"Th-T fluorescence, mean of three wells","Supplementary Fig. 47, reading M141",3.571
same,"Th-T fluorescence, mean of three wells","Supplementary Fig. 47, reading M142",3.57
same,"Th-T fluorescence, mean of three wells","Supplementary Fig. 47, reading M143",3.569
same,"Th-T fluorescence, mean of three wells","Supplementary Fig. 47, reading M144",3.562
same,"Th-T fluorescence, mean of three wells","Supplementary Fig. 47, reading M145",3.551
same,"Th-T fluorescence, mean of three wells","Supplementary Fig. 47 source data, measurement M37 of time course",3.249
same,"Th-T fluorescence, mean of three wells","Supplementary Fig. 47 source data, measurement M38 of time course",3.349
same,"Th-T fluorescence, mean of three wells","Supplementary Fig. 47 source data, measurement M39 of time course",3.376
same,"Th-T fluorescence, mean of three wells","Supplementary Fig. 47 source data, measurement M40 of time course",3.376
same,"Th-T fluorescence, mean of three wells","Supplementary Fig. 47 source data, measurement M41 of time course",3.367
same,"Th-T fluorescence, mean of three wells","Supplementary Fig. 47 source data, measurement M42 of time course",3.371
same,"Th-T fluorescence, mean of three wells","Supplementary Fig. 47 source data, measurement M43 of time course",3.406
same,"Th-T fluorescence, mean of three wells","Supplementary Fig. 47 source data, measurement M44 of time course",3.418
same,"Th-T fluorescence, mean of three wells","Supplementary Fig. 47 source data, measurement M45 of time course",3.459
same,"Th-T fluorescence, mean of three wells","Supplementary Fig. 47 source data, measurement M46 of time course",3.456
same,"Th-T fluorescence, mean of three wells","Supplementary Fig. 47 source data, measurement M47 of time course",3.465
same,"Th-T fluorescence, mean of three wells","Supplementary Fig. 47 source data, measurement M48 of time course",3.489
same,"Th-T fluorescence, mean of three wells","Supplementary Fig. 47 source data, measurement M49 of time course",3.497
same,"Th-T fluorescence, mean of three wells","Supplementary Fig. 47 source data, measurement M50 of time course",3.516
same,"Th-T fluorescence, mean of three wells","Supplementary Fig. 47 source data, measurement M51 of time course",3.557
same,"Th-T fluorescence, mean of three wells","Supplementary Fig. 47 source data, measurement M52 of time course",3.55
same,"Th-T fluorescence, mean of three wells","Supplementary Fig. 47 source data, measurement M53 of time course",3.554
same,"Th-T fluorescence, mean of three wells","Supplementary Fig. 47 source data, measurement M54 of time course",3.5687
same,"Th-T fluorescence, mean of three wells","Supplementary Fig. 47 source data, measurement M55 of time course",3.6
same,"Th-T fluorescence, mean of three wells","Supplementary Fig. 47 source data, measurement M56 of time course",3.63
same,"Th-T assay plate reading, mean of three wells (Supplementary Fig. 47)",measurement M1,0.2517
same,"Th-T assay plate reading, mean of three wells (Supplementary Fig. 47)",measurement M2,0.2528
same,"Th-T assay plate reading, mean of three wells (Supplementary Fig. 47)",measurement M3,0.2961
same,"Th-T assay plate reading, mean of three wells (Supplementary Fig. 47)",measurement M4,0.352
same,"Th-T assay plate reading, mean of three wells (Supplementary Fig. 47)",measurement M5,0.4245
same,"Th-T assay plate reading, mean of three wells (Supplementary Fig. 47)",measurement M6,0.4941
same,"Th-T assay plate reading, mean of three wells (Supplementary Fig. 47)",measurement M7,0.5517
same,"Th-T assay plate reading, mean of three wells (Supplementary Fig. 47)",measurement M8,0.6173
same,"Th-T assay plate reading, mean of three wells (Supplementary Fig. 47)",measurement M9,0.6978
same,"Th-T assay plate reading, mean of three wells (Supplementary Fig. 47)",measurement M10,0.9149
same,"Th-T assay plate reading, mean of three wells (Supplementary Fig. 47)",measurement M11,1.381
same,"Th-T assay plate reading, mean of three wells (Supplementary Fig. 47)",measurement M12,1.864
same,"Th-T assay plate reading, mean of three wells (Supplementary Fig. 47)",measurement M13,2.227
same,"Th-T assay plate reading, mean of three wells (Supplementary Fig. 47)",measurement M14,2.461
same,"Th-T assay plate reading, mean of three wells (Supplementary Fig. 47)",measurement M15,2.575
same,"Th-T assay plate reading, mean of three wells (Supplementary Fig. 47)",measurement M16,2.619
same,"Th-T fluorescence, mean of three wells","reading M17, Supplementary Fig. 47 source data",2.658
same,"Th-T fluorescence, mean of three wells","reading M18, Supplementary Fig. 47 source data",2.682
same,"Th-T fluorescence, mean of three wells","reading M19, Supplementary Fig. 47 source data",2.683
same,"Th-T fluorescence, mean of three wells","reading M20, Supplementary Fig. 47 source data",2.726
same,"Th-T fluorescence, mean of three wells","reading M21, Supplementary Fig. 47 source data",2.74
same,"Th-T fluorescence, mean of three wells","reading M22, Supplementary Fig. 47 source data",2.776
same,"Th-T fluorescence, mean of three wells","reading M23, Supplementary Fig. 47 source data",2.7833
same,"Th-T fluorescence, mean of three wells","reading M24, Supplementary Fig. 47 source data",2.808
same,"Th-T fluorescence, mean of three wells","reading M25, Supplementary Fig. 47 source data",2.851
same,"Th-T fluorescence, mean of three wells","reading M26, Supplementary Fig. 47 source data",2.893
same,"Th-T fluorescence, mean of three wells","reading M27, Supplementary Fig. 47 source data",2.879
same,"Th-T fluorescence, mean of three wells","reading M28, Supplementary Fig. 47 source data",2.908
same,"Th-T fluorescence, mean of three wells","reading M29, Supplementary Fig. 47 source data",2.914
same,"Th-T fluorescence, mean of three wells","reading M30, Supplementary Fig. 47 source data",2.944
same,"Th-T fluorescence, mean of three wells","reading M31, Supplementary Fig. 47 source data",2.96
same,"Th-T fluorescence, mean of three wells","reading M32, Supplementary Fig. 47 source data",3.025
same,"Th-T fluorescence, mean of three wells","reading M33, Supplementary Fig. 47 source data",3.031
same,"Th-T fluorescence, mean of three wells","reading M34, Supplementary Fig. 47 source data",3.078
same,"Th-T fluorescence, mean of three wells","reading M35, Supplementary Fig. 47 source data",3.103
same,"Th-T fluorescence, mean of three wells","reading M36, Supplementary Fig. 47 source data",3.12
same,"Th-T fluorescence, mean of three wells","time course, reading M57",3.617
same,"Th-T fluorescence, mean of three wells","time course, reading M58",3.628
same,"Th-T fluorescence, mean of three wells","time course, reading M59",3.637
same,"Th-T fluorescence, mean of three wells","time course, reading M60",3.637
same,"Th-T fluorescence, mean of three wells","time course, reading M61",3.653
same,"Th-T fluorescence, mean of three wells","time course, reading M62",3.653
same,"Th-T fluorescence, mean of three wells","time course, reading M63",3.655
same,"Th-T fluorescence, mean of three wells","time course, reading M64",3.667
same,"Th-T fluorescence, mean of three wells","time course, reading M65",3.662
same,"Th-T fluorescence, mean of three wells","time course, reading M66",3.684
same,"Th-T fluorescence, mean of three wells","time course, reading M67",3.7096
same,"Th-T fluorescence, mean of three wells","time-course reading M97, Supplementary Fig. 47 source data",3.715
same,"Th-T fluorescence, mean of three wells","time-course reading M98, Supplementary Fig. 47 source data",3.727
same,"Th-T fluorescence, mean of three wells","time-course reading M99, Supplementary Fig. 47 source data",3.7169
same,"Th-T fluorescence, mean of three wells","time-course reading M100, Supplementary Fig. 47 source data",3.715
same,"Th-T fluorescence, mean of three wells","time-course reading M101, Supplementary Fig. 47 source data",3.715
same,"Th-T fluorescence, mean of three wells","time-course reading M102, Supplementary Fig. 47 source data",3.7
same,"Th-T fluorescence, mean of three wells","time-course reading M103, Supplementary Fig. 47 source data",3.686
same,"Th-T fluorescence, mean of three wells","time-course reading M104, Supplementary Fig. 47 source data",3.695
same,"Th-T fluorescence, mean of three wells","time-course reading M105, Supplementary Fig. 47 source data",3.722
same,"Th-T fluorescence, mean of three wells","time-course reading M106, Supplementary Fig. 47 source data",3.704
same,"Th-T fluorescence, mean of three wells","time-course reading M107, Supplementary Fig. 47 source data",3.71
same,"Th-T fluorescence, mean of three wells","time-course reading M108, Supplementary Fig. 47 source data",3.718
same,"Th-T fluorescence, mean of three wells","time-course reading M109, Supplementary Fig. 47 source data",3.713
same,"Th-T fluorescence, mean of three wells","time-course reading M110, Supplementary Fig. 47 source data",3.7
same,"Th-T fluorescence, mean of three wells","time-course reading M111, Supplementary Fig. 47 source data",3.699
same,"Th-T fluorescence, mean of three wells","time-course reading M112, Supplementary Fig. 47 source data",3.698
same,"Th-T fluorescence, mean of three wells","time-course reading M113, Supplementary Fig. 47 source data",3.697
same,"Th-T fluorescence, mean of three wells","time-course reading M114, Supplementary Fig. 47 source data",3.674
same,"Th-T fluorescence, mean of three wells","time-course reading M115, Supplementary Fig. 47 source data",3.682
same,"Th-T fluorescence, mean of three wells","time-course reading M116, Supplementary Fig. 47 source data",3.669
